The NIST ThermoML archive (doi:10.1021/je7007654)
± gives the expanded uncertainty stated by the source.

Legend:
[1] = 101 kPa, Liquid; for viscosity: Capillary tube (Ostwald / Ubbelohde) method; for speed of sound: Sing-around technique in a fixed-path interferometer
[2] = xn = mol fraction of the nth substance listed; conditions: 101 kPa, Liquid, x1 = 1; for viscosity: Capillary tube (Ostwald / Ubbelohde) method; for speed of sound: Sing-around technique in a fixed-path interferometer
[3] = 298.15 K, Vibrating tube method
[4] = 303.15 K, Vibrating tube method
[5] = 308.15 K, Vibrating tube method

CCCCO [butan-1-ol]
mass density ([1]; 298.15 K): 805.907 ± 0.67 kg/m3
viscosity ([1]; 298.15 K): 2.573 ± 0.016 mPa·s
speed of sound ([1]; 298.15 K): 1240.5 ± 0.8 m/s
mass density ([1]; 303.15 K): 803.155 ± 0.68 kg/m3
viscosity ([1]; 303.15 K): 2.275 ± 0.014 mPa·s
speed of sound ([1]; 303.15 K): 1226.5 ± 0.8 m/s
mass density ([1]; 308.15 K): 799.249 ± 0.69 kg/m3
viscosity ([1]; 308.15 K): 1.981 ± 0.013 mPa·s
speed of sound ([1]; 308.15 K): 1209.8 ± 0.8 m/s

CCCCO [butan-1-ol] + CC(C)CCCC(C)CCCC(C)CCCCC(C)CCCC(C)CCCC(C)C
viscosity ([2]; 298.15 K): 2.573 ± 0.016 mPa·s
speed of sound ([2]; 298.15 K): 1240.5 ± 0.8 m/s
mass density [2, 3]: 805.907 ± 0.14 kg/m3
viscosity ([2]; 303.15 K): 2.275 ± 0.014 mPa·s
speed of sound ([2]; 303.15 K): 1226.5 ± 0.8 m/s
mass density [2, 4]: 803.155 ± 0.14 kg/m3
viscosity ([2]; 308.15 K): 1.981 ± 0.013 mPa·s
speed of sound ([2]; 308.15 K): 1209.8 ± 0.8 m/s
mass density [2, 5]: 799.249 ± 0.14 kg/m3

CC(C)CCCC(C)CCCC(C)CCCCC(C)CCCC(C)CCCC(C)C (stereo not given) [2,6,10,15,19,23-hexamethyltetracosane]
viscosity ([1]; 298.15 K): 28.26 ± 0.18 mPa·s
speed of sound ([1]; 298.15 K): 1381.9 ± 1.2 m/s
mass density [1, 3]: 805.122 ± 0.23 kg/m3
viscosity ([1]; 303.15 K): 22.09 ± 0.14 mPa·s
speed of sound ([1]; 303.15 K): 1364.1 ± 1.2 m/s
mass density [1, 4]: 801.912 ± 0.24 kg/m3
viscosity ([1]; 308.15 K): 17.77 ± 0.12 mPa·s
speed of sound ([1]; 308.15 K): 1346.5 ± 1.2 m/s
mass density [1, 5]: 798.709 ± 0.24 kg/m3

CCCCO [butan-1-ol] + CCCCCCCCCCCCCCCC
viscosity ([2]; 298.15 K): 2.573 ± 0.016 mPa·s
speed of sound ([2]; 298.15 K): 1240.5 ± 0.8 m/s
mass density ([2]; 298.15 K): 805.907 ± 0.67 kg/m3
viscosity ([2]; 303.15 K): 2.275 ± 0.014 mPa·s
speed of sound ([2]; 303.15 K): 1226.5 ± 0.8 m/s
mass density ([2]; 303.15 K): 803.155 ± 0.68 kg/m3
viscosity ([2]; 308.15 K): 1.981 ± 0.013 mPa·s
speed of sound ([2]; 308.15 K): 1209.8 ± 0.8 m/s
mass density ([2]; 308.15 K): 799.249 ± 0.69 kg/m3

CCCCCCCCCCCCCCCC [hexadecane]
mass density ([1]; 298.15 K): 770.456 ± 0.84 kg/m3
viscosity ([1]; 298.15 K): 3.041 ± 0.023 mPa·s
speed of sound ([1]; 298.15 K): 1338.6 ± 1.2 m/s
mass density ([1]; 303.15 K): 766.981 ± 0.85 kg/m3
viscosity ([1]; 303.15 K): 2.706 ± 0.02 mPa·s
speed of sound ([1]; 303.15 K): 1320 ± 1.2 m/s
mass density ([1]; 308.15 K): 763.52 ± 0.86 kg/m3
viscosity ([1]; 308.15 K): 2.409 ± 0.018 mPa·s
speed of sound ([1]; 308.15 K): 1301.7 ± 1.2 m/s
